According to patent US20260117174A1, “PRODUCTION METHOD OF THREE-DIMENSIONAL CELL CULTURE, CULTURE METHOD OF THREE-DIMENSIONAL CELL CULTURE, THREE-DIMENSIONAL CELL CULTURE, AND EVALUATION METHOD OF TEST SUBSTANCE” (FUJIFILM Corporation, priority 2023, published 2026):

Test system: three-dimensional co-culture of astrocytes, neurons and microglia
Experiment: Intercellular interactions during neuroinflammation: NF-κB p65 immunostaining of the three-dimensional co-culture after LPS treatment
Type: cell-based, human
Conditions: 100 ng/ml final concentration; fixed 0, 0.5, 1, 3, 6 and 24 hours after treatment; co-culture cultured for 3 weeks
Method: • The three-dimensional co-culture that had been cultured for 3 weeks was treated with Lipopolysaccharide (LPS) from E. coli 0127 (FUJIFILM Wako Pure Chemical Corporation, 124-05151) such that the final concentration was 100 ng/ml, and fixed by treating, for 30 minutes, with a 4% paraformaldehyde-phosphate buffer solution (FUJIFILM Wako Pure Chemical Corporation, 161-20141) at 0, 0.5, 1, 3, 6, and 24 hours after the treatment. After washing with PBS(-), the co-culture was treated with Triton (registered trademark) X-100 solution (BioVision, 2104-100) diluted to 0.4% with PBS(-) for 15 minutes to perform permeation treatment. After the permeation treatment, the co-culture was treated with a BSA solution (Sigma-Aldrich, A416) adjusted at a concentration of 4% with PBS(-) for 30 minutes to perform blocking. […] After washing with PBS(-), imaging was performed with a confocal quantitative image cytometer CQ1 (Yokogawa Electric Corporation, Cell Voyager (registered trademark) CQ1) to acquire images.

## Lipopolysaccharide [LPS]
  nuclear localization of NF-κB after the LPS treatment: change in nuclear localization of NF-κB
